# Measured values taken from patent US12077503B2, “Substituted cyclic amides and their use as herbicides” (FMC CORPORATION, priority 2015, dated 2024).
# Tests used:
# Assay type in all cases: in vivo
# [1] = tested on: redroot pigweed (Amaranthus retroflexus); assay: Test G Pre-Emergence Protocol; details: Amaranthus retroflexus, pre-emergence, 312 h, evaluated after 13 days; for pest or weed control at 15.625 g/ha: 15.625 g ai/ha; for pest or weed control at 15.625 g/ha / pest or weed control at 250 g/ha: read-out: Pigweed, Redroot damage rating (100=total damage to plant; 0=no damage to plant); for pest or weed control at 62.5 g/ha: 62.5 g ai/ha, 100=total damage to plant, 0=no damage to plant, read-out: Pigweed, Redroot damage rating; for pest or weed control at 250 g/ha: 250 g ai/ha
# Procedure, shortened: (§1)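 Under a 24/16° C day/night regime with 14 h light and 65% humidity, sown pots were sprayed after one day with compound (15.625, 62.5 or 250 g/ha; 50:50 acetone/water, 0.5% Tween 20). Damage was assessed visually 13 days later, 0 to 100.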
# [2] = tested on: ivy-leaved morning glory (Ipomoea hederacea); assay: Test G Pre-Emergence Protocol; details: Ipomoea, pre-emergence, 312 h, evaluated after 13 days; for pest or weed control at 15.625 g/ha: 15.625 g ai/ha; for pest or weed control at 15.625 g/ha / pest or weed control at 250 g/ha: read-out: Morningglory, Ivy-leaved damage rating (100=total damage to plant; 0=no damage to plant); for pest or weed control at 62.5 g/ha: 62.5 g ai/ha, 100=total damage to plant, 0=no damage to plant, read-out: Morningglory, Ivy-leaved damage rating; for pest or weed control at 250 g/ha: 250 g ai/ha
# Procedure, shortened: as §1
# [3] = tested on: giant foxtail (Setaria faberi); assay: Test G Pre-Emergence Protocol; details: Setaria faberi, pre-emergence, 312 h, evaluated after 13 days; for pest or weed control at 15.625 g/ha: 15.625 g ai/ha; for pest or weed control at 15.625 g/ha / pest or weed control at 250 g/ha: read-out: Foxtail, Giant damage rating (100=total damage to plant; 0=no damage to plant); for pest or weed control at 62.5 g/ha: 62.5 g ai/ha, 100=total damage to plant, 0=no damage to plant, read-out: Foxtail, Giant damage rating; for pest or weed control at 250 g/ha: 250 g ai/ha
# Procedure, shortened: as §1
# [4] = tested on: velvetleaf (Abutilon theophrasti); assay: Test G Pre-Emergence Protocol; details: Abutilon theophrasti, pre-emergence, 312 h, evaluated after 13 days; for pest or weed control at 15.625 g/ha: 15.625 g ai/ha; for pest or weed control at 15.625 g/ha / pest or weed control at 250 g/ha: read-out: Velvetleaf damage rating (100=total damage to plant; 0=no damage to plant); for pest or weed control at 62.5 g/ha: 62.5 g ai/ha, 100=total damage to plant, 0=no damage to plant, read-out: Velvetleaf damage rating; for pest or weed control at 250 g/ha: 250 g ai/ha
# Procedure, shortened: as §1
# corn (Zea mays) [5] = assay: Test G Pre-Emergence Protocol; details: Zea mays, pre-emergence, 312 h, evaluated after 13 days; for plant injury at 15.625 g/ha: 15.625 g ai/ha; for plant injury at 15.625 g/ha / plant injury at 250 g/ha: read-out: Corn damage rating (100=total damage to plant; 0=no damage to plant); for plant injury at 62.5 g/ha: 62.5 g ai/ha, 100=total damage to plant, 0=no damage to plant, read-out: Corn damage rating; for plant injury at 250 g/ha: 250 g ai/ha
# Procedure, shortened: as §1
# [6] = tested on: barnyardgrass (Echinochloa crus-galli); assay: Test G Pre-Emergence Protocol; details: Echinochloa crus-galli, pre-emergence, 312 h, evaluated after 13 days; for pest or weed control at 15.625 g/ha: 15.625 g ai/ha; for pest or weed control at 15.625 g/ha / pest or weed control at 250 g/ha: read-out: Barnyardgrass damage rating (100=total damage to plant; 0=no damage to plant); for pest or weed control at 62.5 g/ha: 62.5 g ai/ha, 100=total damage to plant, 0=no damage to plant, read-out: Barnyardgrass damage rating; for pest or weed control at 250 g/ha: 250 g ai/ha
# Procedure, shortened: as §1
# [7] = tested on: redroot pigweed (Amaranthus retroflexus); assay: Test G Post-Emergence Protocol; details: Amaranthus retroflexus, post-emergence, 312 h, read-out: Pigweed, Redroot damage rating; for pest or weed control at 15.625 g/ha: 15.625 g ai/ha, evaluated after 13 days (100=total damage to plant; 0=no damage to plant); for pest or weed control at 62.5 g/ha: 62.5 g ai/ha; for pest or weed control at 62.5 g/ha / pest or weed control at 250 g/ha: evaluated after 13 days, 100=total damage to plant, 0=no damage to plant; for pest or weed control at 250 g/ha: 250 g ai/ha
# Procedure, shortened: (§2)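 Eight days post-sowing, plants received a spray of test compound (acetone/water 50:50, 0.5% Tween 20) at 15.625, 62.5 or 250 g/ha. Glasshouse regime thereafter: 24/16 °C, 14 h light, 65% humidity. Assessment after 13 days on a 0–100 damage scale.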
# [8] = tested on: ivy-leaved morning glory (Ipomoea hederacea); assay: Test G Post-Emergence Protocol; details: Ipomoea, post-emergence, 312 h, read-out: Morningglory, Ivy-leaved damage rating; for pest or weed control at 15.625 g/ha: 15.625 g ai/ha, evaluated after 13 days (100=total damage to plant; 0=no damage to plant); for pest or weed control at 62.5 g/ha: 62.5 g ai/ha; for pest or weed control at 62.5 g/ha / pest or weed control at 250 g/ha: evaluated after 13 days, 100=total damage to plant, 0=no damage to plant; for pest or weed control at 250 g/ha: 250 g ai/ha
# Procedure, shortened: as §2
# [9] = tested on: giant foxtail (Setaria faberi); assay: Test G Post-Emergence Protocol; details: Setaria faberi, post-emergence, 312 h, read-out: Foxtail, Giant damage rating; for pest or weed control at 15.625 g/ha: 15.625 g ai/ha, evaluated after 13 days (100=total damage to plant; 0=no damage to plant); for pest or weed control at 62.5 g/ha: 62.5 g ai/ha
# Procedure, shortened: as §2
# [10] = tested on: velvetleaf (Abutilon theophrasti); assay: Test G Post-Emergence Protocol; details: Abutilon theophrasti, post-emergence, 312 h, read-out: Velvetleaf damage rating; for pest or weed control at 15.625 g/ha: 15.625 g ai/ha, evaluated after 13 days (100=total damage to plant; 0=no damage to plant); for pest or weed control at 62.5 g/ha: 62.5 g ai/ha; for pest or weed control at 62.5 g/ha / pest or weed control at 250 g/ha: evaluated after 13 days, 100=total damage to plant, 0=no damage to plant; for pest or weed control at 250 g/ha: 250 g ai/ha
# Procedure, shortened: as §2
# corn (Zea mays) [11] = assay: Test G Post-Emergence Protocol; details: Zea mays, post-emergence, 312 h, read-out: Corn damage rating; for plant injury at 15.625 g/ha: 15.625 g ai/ha, evaluated after 13 days (100=total damage to plant; 0=no damage to plant); for plant injury at 62.5 g/ha: 62.5 g ai/ha; for plant injury at 62.5 g/ha / plant injury at 250 g/ha: evaluated after 13 days, 100=total damage to plant, 0=no damage to plant; for plant injury at 250 g/ha: 250 g ai/ha
# Procedure, shortened: as §2
# [12] = tested on: barnyardgrass (Echinochloa crus-galli); assay: Test G Post-Emergence Protocol; details: Echinochloa crus-galli, post-emergence, 312 h, read-out: Barnyardgrass damage rating; for pest or weed control at 15.625 g/ha: 15.625 g ai/ha, evaluated after 13 days (100=total damage to plant; 0=no damage to plant); for pest or weed control at 62.5 g/ha: 62.5 g ai/ha; for pest or weed control at 62.5 g/ha / pest or weed control at 250 g/ha: evaluated after 13 days, 100=total damage to plant, 0=no damage to plant; for pest or weed control at 250 g/ha: 250 g ai/ha
# Procedure, shortened: as §2
# [13] = evaluated after 13 days, 100=total damage to plant, 0=no damage to plant
SMILES,pest or weed control at 15.625 g/ha [1],pest or weed control at 62.5 g/ha [1],pest or weed control at 250 g/ha [1],pest or weed control at 15.625 g/ha [2],pest or weed control at 62.5 g/ha [2],pest or weed control at 250 g/ha [2],pest or weed control at 15.625 g/ha [3],pest or weed control at 62.5 g/ha [3],pest or weed control at 250 g/ha [3],pest or weed control at 15.625 g/ha [4],pest or weed control at 62.5 g/ha [4],pest or weed control at 250 g/ha [4],plant injury at 15.625 g/ha (corn (Zea mays) [5]),plant injury at 62.5 g/ha (corn (Zea mays) [5]),plant injury at 250 g/ha (corn (Zea mays) [5]),pest or weed control at 15.625 g/ha [6],pest or weed control at 62.5 g/ha [6],pest or weed control at 250 g/ha [6],pest or weed control at 15.625 g/ha [7],pest or weed control at 62.5 g/ha [7],also measured
COCCOc1cccc([C@@H]2CN(C)C(=O)[C@H]2C(=O)Nc2cccc(F)c2C)c1 (racemic) [Compound 1765],0%,0%,0%,0%,0%,0%,50%,70%,90%,0%,0%,0%,0%,0%,20%,20%,50%,60%,0%,0%,"pest or weed control at 250 g/ha [7]: 0%; pest or weed control at 15.625 g/ha [8]: 0%; pest or weed control at 62.5 g/ha [8]: 0%; pest or weed control at 250 g/ha [8]: 20%; pest or weed control at 15.625 g/ha [9]: 10%; pest or weed control at 62.5 g/ha [9, 13]: 60%; pest or weed control at 250 g/ha ([9]; 250 g ai/ha, evaluated after 13 days, 100=total damage to plant, 0=no damage to plant): 70%; pest or weed control at 15.625 g/ha [10]: 0%; pest or weed control at 62.5 g/ha [10]: 0%; pest or weed control at 250 g/ha [10]: 0%; plant injury at 15.625 g/ha (corn (Zea mays) [11]): 0%; plant injury at 62.5 g/ha (corn (Zea mays) [11]): 10%; plant injury at 250 g/ha (corn (Zea mays) [11]): 10%; pest or weed control at 15.625 g/ha [12]: 0%; pest or weed control at 62.5 g/ha [12]: 30%; pest or weed control at 250 g/ha [12]: 70%"
CN1CC(C2CCN=C(C(C)(C)C)N2)C(C(=O)Nc2ccc(F)c(F)c2F)C1=O (centres unmarked) [Compound 1771],0%,0%,0%,0%,0%,0%,0%,0%,0%,0%,0%,0%,0%,0%,0%,0%,0%,0%,0%,0%,"pest or weed control at 250 g/ha [7]: 0%; pest or weed control at 15.625 g/ha [8]: 0%; pest or weed control at 62.5 g/ha [8]: 0%; pest or weed control at 250 g/ha [8]: 0%; pest or weed control at 15.625 g/ha [9]: 0%; pest or weed control at 62.5 g/ha [9, 13]: 0%; pest or weed control at 15.625 g/ha [10]: 0%; pest or weed control at 62.5 g/ha [10]: 0%; pest or weed control at 250 g/ha [10]: 0%; plant injury at 15.625 g/ha (corn (Zea mays) [11]): 0%; plant injury at 62.5 g/ha (corn (Zea mays) [11]): 0%; plant injury at 250 g/ha (corn (Zea mays) [11]): 0%; pest or weed control at 15.625 g/ha [12]: 0%; pest or weed control at 62.5 g/ha [12]: 0%; pest or weed control at 250 g/ha [12]: 0%"
